Experimental data: patent US6313177A, “D-mannitol derivatives as HIV aspartyl protease inhibitors” (Pharmacor Inc., priority 1999, dated 2001)
Read-outs that look alike come from different tables or passages of the source.

Molecular target: T1, recombinant HIV-1 protease (Human immunodeficiency virus type 1 group M subtype B, UniProt P04585)
T1 construct: recombinant HIV-1 protease; purchased Bachem Bioscience
Experiment: Fluorometric (FRET) enzymatic assay for the inhibition constant (Ki) against the HIV protease
Format: biochemical
From the text: Enzymatic Assay for Determining the Inhibition Constant (Ki) of Synthetic Compounds Prepared Against the HIV Protease
This is a fluorometric assay based on the cleavage by protease of a substrate carrying a donor group (EDANS, excitation at 340 nm and emission at 490 nm) and an acceptor group (DABCYL) on each side of the cleavage site, interacting together through fluorescence resonance energy transfer (FRET). Cleavage of the substrate by protease stops energy exchange between the two groups, resulting in a time-dependent increase in fluorescence intensity that is linearly related to the extent of substrate hydrolysis.
The enzymatic assay is done at 30° C. in a spectrophotometer microcuvet, in a total volume of 400 μL. The apparatus used for readings is a UV-visible Cary 1 spectrophotometer made by Varian. The reaction is run first in the absence of protease inhibitors for 2 min, using 355 μL of buffer at pH 4.7 (sodium acetate 100 mM, NaCl 1 M, EDTA 1 mM, DTT 1 mM, dimethylsulfoxide 10%, and BSA 1 mg/mL), 40 μL of substrate H-2930 from Molecular Probes (final concentration 10 μM) and 5 μL of recombinant HIV-1 protease (final concentration 18.3 nM) purchased from Bachem Bioscience. Fluorescence readings at […] are taken continuously during the reaction, allowing determination of the enzyme's initial velocity (v0). At the end of the 2 min incubation, the potential inhibitor at a defined concentration in a volume of 2 μL is added to the reaction, and fluorescence readings are taken for another 2 min, allowing determination of enzyme velocity (vi) in the presence of the inhibitory compound. Several concentrations of the putative inhibitors are tested in the assay. After calculation of vo and vi, the inhibition constant (Ki) of the compound is determined using the equation of Henderson: [formula]
and [I]=inhibitor concentration, [S ]=substrate concentration, Km=Michaelis-Menten constant, Kiapp =apparent Ki
Note that the Michaelis-Menten constant of HIV protease is determined by running the assay without inhibitors, using several concentrations of substrate, and plotting the results as a Cornish-Bowden graph with the ratio substrate concentration/velocity as the ordinate and substrate concentration as the abscissa.

[1] = Table 1, benzylated D-mannitol derivatives, pH 4.7, 30° C., substrate 10 μM, protease 18.3 nM

Row | SMILES | Ki [1] [nM] | also measured
1 | O[C@H]([C@@H](O)[C@H](COCc1cccs1)OCc1ccccc1)[C@H](COCc1cccs1)OCc1ccccc1 (stereo in doubt) [Compound 92, 1,6-di-O-(2-thienylmethyl)-2,5-di-O-benzyl-L-mannitol] |  | Ki (Table 2, tetra-substituted D-mannitol derivatives, pH 4.7, 30° C., substrate 10 μM, protease 18.3 nM): 800 nM
2 | Oc1cccc(CO[C@H](COCc2ccccc2)[C@@H](O)[C@H](O)[C@@H](COCc2ccccc2)OCc2cccc(O)c2)c1 [Compound 3, 1,6-di-O-benzyl-2,5-di-O-(3-hydroxybenzyl)-D-mannitol] | 6000 | 
3 | Oc1ccc(COC[C@@H](OCc2ccc(F)cc2)[C@@H](O)[C@H](O)[C@@H](COCc2ccc(O)cc2)OCc2ccc(F)cc2)cc1 [Compound 4, 1,6-di-O-(4-hydroxybenzyl)-2,5-di-O-(4-fluorobenzyl)-D-mannitol] | 400 | 
4 | Oc1ccc(CO[C@H](COCc2ccccc2F)[C@@H](O)[C@H](O)[C@@H](COCc2ccccc2F)OCc2ccc(O)cc2)cc1 [Compound 5, 1,6-di-(2-fluorobenzyl)-2,5-di-(4-hydroxybenzyl)-D-mannitol] | 2700 | 
5 | O[C@@H]([C@H](O)[C@@H](COCc1ccccc1)OCc1ccc(OCc2ccccc2)cc1)[C@@H](COCc1ccccc1)OCc1ccc(OCc2ccccc2)cc1 [Compound 6, 1,6-di-O-benzyl-2,5-di-O-(4-benzyloxybenzyl)-D-mannitol] | < 1000 | 
6 | Nc1ccc(CO[C@H](COCc2ccccc2)[C@@H](O)[C@H](O)[C@@H](COCc2ccccc2)OCc2ccccc2)cc1 [Compound 9, 1,2,6-tri-O-benzyl-5-O-(4-aminobenzyl)-D-mannitol] | 3300 | 
7 | O[C@@H]([C@H](O)[C@@H](COCc1ccccc1F)OCc1ccccc1)[C@@H](COCc1ccccc1)OCc1ccccc1 [Compound 10, 1,2,5-tri-O-benzyl-6-O-(2-fluorobenzyl)-D-mannitol] | 400 | 
8 | O[C@@H]([C@H](O)[C@@H](COCc1ccc(C(F)(F)F)cc1)OCc1ccc(C(F)(F)F)cc1)[C@@H](COCc1ccc(C(F)(F)F)cc1)OCc1ccc(C(F)(F)F)cc1 [Compound 11, 1,2,5,6-tetra-O-(4-trifluoromethylbenzyl)-D-mannitol] | > 5000 | 
9 | N#Cc1ccc(COC[C@@H](OCc2ccc(C#N)cc2)[C@@H](O)[C@H](O)[C@@H](COCc2ccc(C#N)cc2)OCc2ccc(C#N)cc2)cc1 [Compound 12, 1,2,5,6-tetra-O-(4-cyanobenzyl)-D-mannitol] | 3100 | 
10 | N#Cc1ccc(CO[C@H](COCc2ccccc2)[C@@H](O)[C@H](O)[C@@H](COCc2ccccc2)OCc2ccc(C#N)cc2)cc1 [Compound 14, 1,6-di-O-benzyl-2,5-di-O-(4-cyanobenzyl)-D-mannitol] | 5400 | 
11 | O[C@@H]([C@H](O)[C@@H](COCc1ccccc1)OCc1c(F)c(F)c(F)c(F)c1F)[C@@H](COCc1ccccc1)OCc1c(F)c(F)c(F)c(F)c1F [Compound 15, 1,6-di-O-benzyl-2,5-di-O-(pentafluorobenzyl)-D-mannitol] | > 5000 | 
12 | O[C@@H]([C@H](O)[C@@H](COCc1ccccc1)OCc1ccc(F)cc1)[C@@H](COCc1ccccc1)OCc1ccc(F)cc1 [Compound 16, 1,6-di-O-benzyl-2,5-di-O-(4-fluorobenzyl)-D-mannitol] | 700 | 
13 | O[C@@H]([C@H](O)[C@@H](COCc1ccccc1)OCc1ccc(Cl)cc1)[C@@H](COCc1ccccc1)OCc1ccc(Cl)cc1 [Compound 17, 1,6-di-O-benzyl-2,5-di-O-(4-chlorobenzyl)-D-mannitol] | 2000 | 
14 | O[C@@H]([C@H](O)[C@@H](COCc1ccccc1)OCc1ccc(Br)cc1)[C@@H](COCc1ccccc1)OCc1ccc(Br)cc1 [Compound 18, 1,6-di-O-benzyl, 2,5-di-O-(4-bromobenzyl)-D-mannitol] | 2100 | 
15 | COC(=O)c1ccc(CO[C@H](COCc2ccccc2)[C@@H](O)[C@H](O)[C@@H](COCc2ccccc2)OCc2ccc(C(=O)OC)cc2)cc1 [Compound 19, 1,6-di-O-benzyl-2,5-di-O-(4-carbomethoxybenzyl)-D-mannitol] | 8400 | 
16 | O[C@@H]([C@H](O)[C@@H](COCc1ccccc1)OCc1cccc(F)c1)[C@@H](COCc1ccccc1)OCc1cccc(F)c1 [Compound 20, 1,6-di-O-benzyl-2,5-di-O-(3-fluorobenzyl)-D-mannitol] | 1800 | 
17 | O[C@@H]([C@H](O)[C@@H](COCc1ccccc1)OCc1ccccc1F)[C@@H](COCc1ccccc1)OCc1ccccc1F [Compound 21, 1,6-di-O-benzyl-2,5-di-O-(2-fluorobenzyl)-D-mannitol] |  | Ki: 3700 nM

Row | SMILES | Ki [1] [nM] | also measured
18 | O[C@@H]([C@H](O)[C@@H](COCc1ccccc1)OCc1ccc(C(F)(F)F)cc1)[C@@H](COCc1ccccc1)OCc1ccc(C(F)(F)F)cc1 [Compound 22, 1,6-di-O-benzyl-2,5-di-O-(4-trifluoromethylbenzyl)-D-mannitol] | 10000 | 
19 | O[C@@H]([C@H](O)[C@@H](COCc1ccccc1)OCc1ccc(F)cc1F)[C@@H](COCc1ccccc1)OCc1ccc(F)cc1F [Compound 23, 1,6-di-O-benzyl-2,5-di-O-(2,4-difluorobenzyl)-D-mannitol] | 2600 ± 500 | 
20 | Cc1ccc(CO[C@H](COCc2ccccc2)[C@@H](O)[C@H](O)[C@@H](COCc2ccccc2)OCc2ccc(C)cc2)cc1 [Compound 24, 1,6-di-O-benzyl-2,5-di-O-(4-methylbenzyl)-D-mannitol] | 3700 | 
21 | O[C@@H]([C@H](O)[C@@H](COCc1ccccc1)OCc1c(F)cccc1F)[C@@H](COCc1ccccc1)OCc1c(F)cccc1F [Compound 25, 1,6-di-O-benzyl-2,5-di-O-(2,6-difluorobenzyl)-D-mannitol] | 6400 | 
22 | Cc1ccc(COC[C@@H](OCc2ccccc2)[C@@H](O)[C@H](O)[C@@H](COCc2ccc(C)cc2)OCc2ccccc2)cc1 [Compound 26, 1,6-di-O-(4-methylbenzyl)-2,5-di-O-benzyl-D-mannitol] | 3000 | 
23 | O[C@@H]([C@H](O)[C@@H](COCc1ccc(C(F)(F)F)cc1)OCc1ccccc1)[C@@H](COCc1ccc(C(F)(F)F)cc1)OCc1ccccc1 [Compound 27, 1,6-di-O-(4-trifluoromethylbenzyl)-2,5-di-O-benzyl-D-mannitol] | > 2000 | 
24 | N#Cc1ccc(COC[C@@H](OCc2ccccc2)[C@@H](O)[C@H](O)[C@@H](COCc2ccc(C#N)cc2)OCc2ccccc2)cc1 [Compound 28, 1,6-di-O-(4-cyanobenzyl)-2,5-di-O-benzyl-D-mannitol] | 4300 | 
25 | COC(=O)c1ccc(COC[C@@H](OCc2ccccc2)[C@@H](O)[C@H](O)[C@@H](COCc2ccc(C(=O)OC)cc2)OCc2ccccc2)cc1 [Compound 29, 1,6-di-O-(4-carbomethoxybenzyl)-2,5-di-O-benzyl-D-mannitol] | 2000 | 
26 | CC(C)COC(=O)c1ccc(COC[C@@H](OCc2ccccc2)[C@@H](O)[C@H](O)[C@@H](COCc2ccc(C(=O)OCC(C)C)cc2)OCc2ccccc2)cc1 [Compound 30, 1,6-di-O-(4-carboisobutoxybenzyl)-2,5-di-O-benzyl D-mannitol] | > 3000 | 
27 | O[C@@H]([C@H](O)[C@@H](COCc1ccc(F)cc1)OCc1ccccc1)[C@@H](COCc1ccc(F)cc1)OCc1ccccc1 [Compound 31, 1,6-di-O-(4-fluorobenzyl)-2,5-di-O-benzyl-D-mannitol] | 2500 | 
28 | O[C@@H]([C@H](O)[C@@H](COCc1ccccc1F)OCc1ccccc1)[C@@H](COCc1ccccc1F)OCc1ccccc1 [Compound 32, 1,6-di-O-(2-fluorobenzyl)-2,5-di-O-benzyl-D-mannitol] | 600 | 
29 | O[C@@H]([C@H](O)[C@@H](COCc1ccc(F)cc1F)OCc1ccccc1)[C@@H](COCc1ccc(F)cc1F)OCc1ccccc1 [Compound 33, 1,6-di-O-(2,4-fluorobenzyl)-2,5-di-O-benzyl-D-mannitol] | 4200 ± 500 | 
30 | O[C@@H]([C@H](O)[C@@H](COCc1ccccc1F)OCc1ccc(Br)cc1)[C@@H](COCc1ccccc1F)OCc1ccc(Br)cc1 [Compound 34, 1,6-di-O-(2-fluorobenzyl)-2,5-di-O-(4-bromobenzyl)-D-mannitol] | 1900 | 
31 | O[C@@H]([C@H](O)[C@@H](COCc1c(F)cccc1F)OCc1ccccc1)[C@@H](COCc1c(F)cccc1F)OCc1ccccc1 [Compound 35, 1,6-di-O-(2,6-difluorobenzyl)-2,5-di-O-benzyl-D-mannitol] | 330 ± 50 | 
32 | Cc1ccccc1CO[C@H](COCc1ccccc1F)[C@@H](O)[C@H](O)[C@@H](COCc1ccccc1F)OCc1ccccc1C [Compound 38, 1,6-di-O-(2-fluorobenzyl)-2,5-di-O-(2-methylbenzyl)-D-mannitol] | 800 | 
33 | O[C@@H]([C@H](O)[C@@H](COCc1c(F)cccc1F)OCc1ccc(F)cc1)[C@@H](COCc1c(F)cccc1F)OCc1ccc(F)cc1 [Compound 39, 1,6-di-O-(2,6-difluorobenzyl)-2,5-di-O-(4-fluorobenzyl)-D-mannitol] |  | Ki: 330 nM
